Results published in US8404679B2, “Pyrrolidine derivatives as NK2 receptor antagonists” (Hoffmann-La Roche Inc., priority 2008, dated 2013).

target: T1, human NK2 receptor (Homo sapiens, UniProt P21452); assay: [3H]SR48968 competition binding assay; conditions: [3H]SR48968 displacement, membranes of CHO cells stably expressing recombinant human NK2 receptor; Ki from IC50 by Cheng-Prussoff
T1 construct: purchased Perkin Elmer biosignal Inc. 6110510
T1 sequence (P21452 1-398): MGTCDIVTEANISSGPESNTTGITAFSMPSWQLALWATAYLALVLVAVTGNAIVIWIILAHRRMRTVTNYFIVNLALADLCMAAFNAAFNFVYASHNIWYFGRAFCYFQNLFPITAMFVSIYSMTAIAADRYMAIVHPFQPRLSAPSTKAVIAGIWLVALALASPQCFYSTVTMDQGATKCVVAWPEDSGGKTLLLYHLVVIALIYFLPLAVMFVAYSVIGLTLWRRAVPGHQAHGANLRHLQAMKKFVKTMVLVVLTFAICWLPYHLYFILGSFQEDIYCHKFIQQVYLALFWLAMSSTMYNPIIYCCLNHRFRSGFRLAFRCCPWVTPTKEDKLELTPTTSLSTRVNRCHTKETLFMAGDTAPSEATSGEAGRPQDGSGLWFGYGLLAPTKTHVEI
Method in brief: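 Membranes from CHO cells stably expressing recombinant human NK2 were incubated 75 min at RT with [3H]SR48968 at its KD and 10 compound concentrations (0.0003–10 μM) in Tris-HCl pH 7.4, MnCl2, chymostatin, BSA. Filter-bound radioactivity was counted; Hill-fitted IC50 converted to Ki via Cheng-Prusoff.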

First: COc1ccc(C(=O)N(C)[C@@H]2CN(C(=O)c3ccncc3)C[C@H]2c2ccc(Cl)c(Cl)c2)cc1C(F)(F)F (racemic) [Example 51, rac-N-[(3S,4R)-4-(3,4-Dichloro-phenyl)-1-(pyridine-4-carbonyl)-pyrrolidin-3-yl]-4-methoxy-N-methyl-3-trifluoromethyl-benzamide]
Second: COc1ccc(C(=O)N(C)[C@@H]2CN(C(=O)c3ccc(C(C)=O)cc3)C[C@H]2c2ccc(Cl)c(Cl)c2)cc1C(F)(F)F (racemic) [Example 57, rac-N-[(3S,4R)-1-(4-Acetyl-benzoyl)-4-(3,4-dichloro-phenyl)-pyrrolidin-3-yl]-4-methoxy-N-methyl-3-trifluoromethyl-benzamide]
The Ki of the first is 1.9-fold higher: 3 nM for the first, 1.55 nM for the second. The second binds more tightly here.

Compared with `COc1ccc(C(=O)N(C)[C@@H]2CN(C(=O)c3cc(Cl)nc(Cl)c3)C[C@H]2c2ccc(Cl)c(Cl)c2)cc1C(F)(F)F` (racemic) [Example 52, rac-N-[(3S,4R)-4-(3,4-Dichloro-phenyl)-1-(2,6-dichloro-pyridine-4-carbonyl)-pyrrolidin-3-yl]-4-methoxy-N-methyl-3-trifluoromethyl-benzamide], `COc1ccc(C(=O)N(C)[C@@H]2CN(C(=O)c3cc(C)cc(C)c3)C[C@H]2c2ccc(Cl)c(Cl)c2)cc1C(F)(F)F` (racemic) [Example 56, rac-N-[(3S,4R)-4-(3,4-Dichloro-phenyl)-1-(3,5-dimethyl-benzoyl)-pyrrolidin-3-yl]-4-methoxy-N-methyl-3-trifluoromethyl-benzamide] is 2.6-fold higher in Ki: 3.72 nM for the first, 9.52 nM for the second.

`COc1ccc(C(=O)N(C)[C@@H]2CN(C(=O)c3ccc(OC(F)(F)F)cc3)C[C@H]2c2ccc(Cl)c(Cl)c2)cc1C(F)(F)F` (racemic) [Example 53, rac-N-[(3S,4R)-4-(3,4-Dichloro-phenyl)-1-(4-trifluoromethoxy-benzoyl)-pyrrolidin-3-yl]-4-methoxy-N-methyl-3-trifluoromethyl-benzamide] and `COc1ccc(C(=O)N2C[C@@H](N(C)C(=O)c3ccc(OC)c(C(F)(F)F)c3)[C@H](c3ccc(Cl)c(Cl)c3)C2)cc1C` (racemic) [Example 55, rac-N-[(3S,4R)-4-(3,4-Dichloro-phenyl)-1-(4-methoxy-3-methyl-benzoyl)-pyrrolidin-3-yl]-4-methoxy-N-methyl-3-trifluoromethyl-benzamide] are within 1.5-fold of each other in Ki: 2.91 nM for the first, 2.06 nM for the second.

First: COc1ccc(C(=O)N(C)[C@@H]2CN(C(=O)c3cccc(S(C)(=O)=O)c3)C[C@H]2c2ccc(Cl)c(Cl)c2)cc1C(F)(F)F (racemic) [Example 54, rac-N-[(3S,4R)-4-(3,4-Dichloro-phenyl)-1-(3-methanesulfonyl-benzoyl)-pyrrolidin-3-yl]-4-methoxy-N-methyl-3-trifluoromethyl-benzamide]
Second: COc1ccc(C(=O)N(C)[C@@H]2CN(C(=O)c3cc(C)n(C)n3)C[C@H]2c2ccc(Cl)c(Cl)c2)cc1C(F)(F)F (racemic) [Example 58, rac-N-[(3S,4R)-4-(3,4-Dichloro-phenyl)-1-(1,5-dimethyl-1H-pyrazole-3-carbonyl)-pyrrolidin-3-yl]-4-methoxy-N-methyl-3-trifluoromethyl-benzamide]
The Ki of the first is 2.2-fold lower: 3.81 nM for the first, 8.52 nM for the second. The first binds more tightly here.

Compared with `CN(C(=O)c1cc(Cl)ccn1)[C@@H]1CN(C(=O)c2ccc(C#N)cc2)C[C@H]1c1ccc(Cl)c(Cl)c1` (racemic) [Example 59, rac-4-Chloro-pyridine-2-carboxylic acid [(3S,4R)-1-(4-cyano-benzoyl)-4-(3,4-dichloro-phenyl)-pyrrolidin-3-yl]-methyl-amide], `Cc1ccnc(C(=O)N(C)[C@@H]2CN(C(=O)c3ccc(C#N)cc3)C[C@H]2c2ccc(Cl)c(Cl)c2)c1` (racemic) [Example 63, rac-4-Methyl-pyridine-2-carboxylic acid [(3S,4R)-1-(4-cyano-benzoyl)-4-(3,4-dichloro-phenyl)-pyrrolidin-3-yl]-methyl-amide] is 4.8-fold lower in Ki: 12.8 nM for the first, 2.64 nM for the second. The second binds more tightly here.

`CCOCc1ccc(C(=O)N(C)[C@@H]2CN(C(=O)c3ccc(C#N)cc3)C[C@H]2c2ccc(Cl)c(Cl)c2)nc1` (racemic) [Example 65, rac-5-Ethoxymethyl-pyridine-2-carboxylic acid [(3S,4R)-1-(4-cyano-benzoyl)-4-(3,4-dichloro-phenyl)-pyrrolidin-3-yl]-methyl-amide] and `CN(C(=O)c1ccc(Cl)cn1)[C@@H]1CN(C(=O)c2ccc(C#N)cc2)C[C@H]1c1ccc(Cl)c(Cl)c1` (racemic) [Example 69, rac-5-Chloro-pyridine-2-carboxylic acid [(3S,4R)-1-(4-cyano-benzoyl)-4-(3,4-dichloro-phenyl)-pyrrolidin-3-yl]-methyl-amide] are within 1.5-fold of each other in Ki: 30.2 nM for the first, 23.3 nM for the second.

`Cc1cc(Cl)cc(C(=O)N(C)[C@@H]2CN(C(=O)c3ccc(C#N)cc3)C[C@H]2c2ccc(Cl)c(Cl)c2)n1` (racemic) [Example 66, rac-4-Chloro-6-methyl-pyridine-2-carboxylic acid [(3S,4R)-1-(4-cyano-benzoyl)-4-(3,4-dichloro-phenyl)-pyrrolidin-3-yl]-methyl-amide] and `CCc1cc(Cl)cc(C(=O)N(C)[C@@H]2CN(C(=O)c3ccc(C#N)cc3)C[C@H]2c2ccc(Cl)c(Cl)c2)n1` (racemic) [Example 68, rac-4-Chloro-6-ethyl-pyridine-2-carboxylic acid [(3S,4R)-1-(4-cyano-benzoyl)-4-(3,4-dichloro-phenyl)-pyrrolidin-3-yl]-methyl-amide] are within 1.5-fold of each other in Ki: 49.8 nM for the first, 74.3 nM for the second.

Compared with `COc1cc(C(=O)N(C)[C@@H]2CN(C(=O)c3ccc(C#N)cc3)C[C@H]2c2ccc(Cl)c(Cl)c2)nc2ccccc12` (racemic) [Example 67, rac-4-Methoxy-quinoline-2-carboxylic acid [(3S,4R)-1-(4-cyano-benzoyl)-4-(3,4-dichloro-phenyl)-pyrrolidin-3-yl]-methyl-amide], `COc1ccc(C(=O)N(C)[C@@H]2CN(C(=O)c3ccc(C#N)cc3)C[C@H]2c2ccc(Cl)c(Cl)c2)cc1F` (racemic) [Example 73, rac-N-[(3S,4R)-1-(4-Cyano-benzoyl)-4-(3,4-dichloro-phenyl)-pyrrolidin-3-yl]-3-fluoro-4-methoxy-N-methyl-benzamide] is 4.3-fold lower in Ki: 52.9 nM for the first, 12.4 nM for the second. The second binds more tightly here.

`CN(C(=O)c1ccc(C#N)cn1)[C@@H]1CN(C(=O)c2ccc(C#N)cc2)C[C@H]1c1ccc(Cl)c(Cl)c1` (racemic) [Example 70, rac-5-Cyano-pyridine-2-carboxylic acid [(3S,4R)-1-(4-cyano-benzoyl)-4-(3,4-dichloro-phenyl)-pyrrolidin-3-yl]-methyl-amide] and `CN(C(=O)c1ccc(C#N)nc1)[C@@H]1CN(C(=O)c2ccc(C#N)cc2)C[C@H]1c1ccc(Cl)c(Cl)c1` (racemic) [Example 80, rac-6-Cyano-N-[(3S,4R)-1-(4-cyano-benzoyl)-4-(3,4-dichloro-phenyl)-pyrrolidin-3-yl]-N-methyl-nicotinamide] are within 1.5-fold of each other in Ki: 39.7 nM for the first, 40 nM for the second.

`COc1nc(C(=O)N(C)[C@@H]2CN(C(=O)c3ccc(C#N)cc3)C[C@H]2c2ccc(Cl)c(Cl)c2)ccc1C#N` (racemic) [Example 71, rac-5-Cyano-6-methoxy-pyridine-2-carboxylic acid [(3S,4R)-1-(4-cyano-benzoyl)-4-(3,4-dichloro-phenyl)-pyrrolidin-3-yl]-methyl-amide] and `Cc1ccc(C(=O)N(C)[C@@H]2CN(C(=O)c3ccc(C#N)cc3)C[C@H]2c2ccc(Cl)c(Cl)c2)cn1` (racemic) [Example 77, rac-N-[(3S,4R)-1-(4-Cyano-benzoyl)-4-(3,4-dichloro-phenyl)-pyrrolidin-3-yl]-6,N-dimethyl-nicotinamide] are within 1.5-fold of each other in Ki: 34.4 nM for the first, 28.8 nM for the second.

Compared with `CN(C(=O)c1ccc(Cl)c(C(F)(F)F)c1)[C@@H]1CN(C(=O)c2ccc(C#N)cc2)C[C@H]1c1ccc(Cl)c(Cl)c1` (racemic) [Example 72, rac-4-Chloro-N-[(3S,4R)-1-(4-cyano-benzoyl)-4-(3,4-dichloro-phenyl)-pyrrolidin-3-yl]-N-methyl-3-trifluoromethyl-benzamide], `CN(C(=O)c1ccc(Cl)nc1)[C@@H]1CN(C(=O)c2ccc(C#N)cc2)C[C@H]1c1ccc(Cl)c(Cl)c1` (racemic) [Example 78, rac-6-Chloro-N-[(3S,4R)-1-(4-cyano-benzoyl)-4-(3,4-dichloro-phenyl)-pyrrolidin-3-yl]-N-methyl-nicotinamide] is 13-fold higher in Ki: 0.58 nM for the first, 7.8 nM for the second. The first binds more tightly here.

First: COc1ccc(C(=O)N(C)[C@@H]2CN(C(=O)c3ccc(C#N)cc3)C[C@H]2c2ccc(Cl)c(Cl)c2)cc1C(C)(C)C (racemic) [Example 74, rac-3-tert-Butyl-N-[(3S,4R)-1-(4-cyano-benzoyl)-4-(3,4-dichloro-phenyl)-pyrrolidin-3-yl]-4-methoxy-N-methyl-benzamide]
Second: COc1ncc(C(=O)N(C)[C@@H]2CN(C(=O)c3ccc(C#N)cc3)C[C@H]2c2ccc(Cl)c(Cl)c2)cn1 (racemic) [Example 76, rac-2-Methoxy-pyrimidine-5-carboxylic acid [(3S,4R)-1-(4-cyano-benzoyl)-4-(3,4-dichloro-phenyl)-pyrrolidin-3-yl]-methyl-amide]
The Ki of the first is 74-fold lower: 1.3 nM for the first, 96 nM for the second. The first binds more tightly here.

With `CN(C(=O)c1ccc(OCC2CC2)cc1)[C@@H]1CN(C(=O)c2ccc(C#N)cc2)C[C@H]1c1ccc(Cl)c(Cl)c1` (racemic) [Example 75, rac-N-[(3S,4R)-1-(4-Cyano-benzoyl)-4-(3,4-dichloro-phenyl)-pyrrolidin-3-yl]-4-cyclopropylmethoxy-N-methyl-benzamide] the Ki was 23 nM.
